Consider 1 molecule from US11324749B2, “Combination therapy for treatment of hematological diseases” (Incyte Corporation, priority 2018, dated 2022).

For assay [1], the target named is human JAK1 (a.a. 837-1142) (Homo sapiens, UniProt P23458). In words: In vitro JAK kinase assay (HTRF), JAK1. Format: biochemical. The following applies: 1 mM ATP. A general note: TR-FRET usually uses a lanthanide donor and a delayed reading to cut background.
Method: (§1) The catalytic activity of JAK1, JAK2, or JAK3 was assayed by measuring the phosphorylation of a biotinylated peptide. The phosphorylated peptide was detected by homogenous time resolved fluorescence (HTRF). […] Reactions are carried out at room temperature for 1 hour and then stopped with 20 μL 45 mM EDTA, 300 nM SA-APC, 6 nM Eu-Py20 in assay buffer (Perkin Elmer, Boston, Mass.). Binding to the Europium labeled antibody takes place for 40 minutes and HTRF signal was measured on a Fusion plate reader (Perkin Elmer, Boston, Mass.).
Assay [2] addresses human JAK2 (a.a. 828-1132) (Homo sapiens (Human), UniProt O60674). Description: In vitro JAK kinase assay (HTRF), JAK2 versus JAK1. To be noted: IC50 ratio, 1 mM ATP. Format: biochemical.
Method: as §1
Assay [3] concerns Human multiple myeloma cell lines KMS12BM, OPM2, MM1.R, MM1.S and KMS11. In words: Cell Titer Glo viability of multiple myeloma cell lines. Format: cell-based. To be noted: 72 hours, compared to DMSO treated controls, all five cell lines. How it is done:
Human multiple myeloma cell lines KMS12BM, OPM2 (DSMZ), MM1.R, MM1.S (ATCC) and KMS11 (JCRB) were seeded into white 96 well plates (Greiner Bio One) at 10^4 cells in 100 μL media. Combinations of dexamethasone (Sigma), lenalidomide (Chemscene), itacitinib, or DMSO control were then added. Doses were selected based on pilot studies designed to find sensitivities of each cell line to these agents. Each dose combination was performed in triplicate. After 72 hours, Cell Titer Glo (Promega) assays were performed as per manufacturer protocol to assess cell viability.
Statistical analyses were performed using Prism Graphpad software. P values were calculated from unpaired t tests—*p<0.05; **p<0.01; ****p<0.0001).
Background: Cellular ATP, detected with luciferase, serves as a proxy for viable cell number.

Sequence of human JAK2 (a.a. 828-1132) (O60674 828-1132): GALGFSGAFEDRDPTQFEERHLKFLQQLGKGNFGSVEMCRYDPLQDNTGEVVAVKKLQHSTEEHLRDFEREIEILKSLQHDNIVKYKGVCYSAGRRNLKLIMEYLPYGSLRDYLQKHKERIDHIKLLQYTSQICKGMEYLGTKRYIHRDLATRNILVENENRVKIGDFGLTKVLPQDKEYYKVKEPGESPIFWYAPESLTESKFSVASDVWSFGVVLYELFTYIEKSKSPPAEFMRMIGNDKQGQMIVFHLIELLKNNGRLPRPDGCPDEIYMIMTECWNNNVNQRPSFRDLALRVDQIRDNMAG

The term IC50 denotes the concentration at which inhibition is half-maximal. A high value points to a need for much substance. Turning to `N#CCC1(n2cc(-c3ncnc4[nH]ccc34)cn2)CN(C2CCN(C(=O)c3ccnc(C(F)(F)F)c3F)CC2)C1` [Compound 1, {1-{1-[3-Fluoro-2-(trifluoromethyl)isonicotinoyl]piperidin-4-yl}-3-[4-(7H-pyrrolo[2,3-d]pyrimidin-4-yl)-1H-pyrazol-1-yl]azetidin-3-yl}acetonitrile], the IC50 in assay [1] was below 10 nM. Besides, in assay [2], the JAK2/JAK1 is given as above 10. In addition, in assay [3], the cell viability result was “no change in viability”.
